The values below come from patent US4360525A, “Dibenzazepine derivatives, pharmaceutical compositions containing them, and methods of use” (Sandoz Ltd., priority 1979, dated 1982).

The subject of test [1] is spontaneous motor activity. The test can be described thus: inhibition of spontaneous motor activity in mice (Caviezel and Baillod). As to conditions: Mus musculus, po. It is filed as in vivo. The procedure:
In particular, the compounds of the invention are useful as neuroleptic agents in the treatment of e.g. psychotic disturbances such as schizophrenia, as indicated in standard tests, e.g. by an inhibition of spontaneous motor activity in mice on p.o. administration of from about 1 to about 50 mg/kg animal body weight of the compounds in accordance with the principles of Caviezel and Baillod (Pharm. Acta Helv. (1958), 33, 465-484).

In another test the test system is sleep/wake cycle. The test can be described thus: sleep/wake cycle in the rat (H. Kleinlogel). It is filed as in vivo. As to conditions: 10 mg/kg p.o. The procedure: Additionally, the compounds on administration to mice of from about 0.1 to about 10 mg/kg i.p. inhibit the hypermotility induced by 4,α-dimethyl-m-tyramine (H 77/77) in a test carried out according to the principles of J. Buus Lassen, Psychopharmacologia 37, 331-340 (1974). The compounds also increase the sleep phase II in the sleep/wake cycle in the rat carried out according to the principles of H. Kleinlogel et al, European J. Pharmacol. 33, 159-163, 1975, on administration of from […]. Results obtained are e.g. as follows:
Additionally the compounds of the invention are useful as sleep-inducing, sleep-promoting and sleep-prolonging agents, as indicated in standard tests. For example, in one test according to the principles of H. Kleinlogel, European J. Pharmacol. 33, 159-163 (1975) an increase in the sleep phase II and a decrease of the wake phase is observed after administration to rats of from 0.5 to 80 mg/kg p.o. animal body weight of the compounds.

In general, ED50 refers to the dose that gives a 50% effect, or the effect in half of the subjects.

In test [1], `CSc1ccc2c(c1)N(CCC1CCCCN1C)c1ccccc1S2` (stereo not shown) [Thioridazine] displayed an ED50 of 26 mg/kg.

On to `CN1CCN(C2=Nc3cc(Cl)ccc3Nc3ccccc32)CC1` [Clozapine], for which, in the test with sleep/wake cycle, the “Sleep phase II % of control” value was 144 % of control.

As to `CN1CCC(N2Cc3cc(Cl)ccc3Sc3ccccc32)CC1` [Example 1, 2-Chloro-10-(1-methyl-piperidin-4-yl)-10,11-dihydro-dibenzo[b,f][1,4]thiazepine], the “Sleep phase II % of control” value in the test with sleep/wake cycle was 131 % of control. Further, the median effective dose (ED50) in test [1] came to 26 mg/kg.
